# In patent US10323026B2, “Heterocyclic compound” (Takeda Pharmaceutical Company Limited, priority 2016, dated 2019):
# Molecular target: T1, His-hMAGL (recombinant polyhistidine tagged human MAGL protein) (Homo sapiens, UniProt Q99685)
# T1 construct: polyhistidine (His) (N); made in house; host or cells: E. coli BL21(DE3)
# T1 sequence (Q99685 1-303): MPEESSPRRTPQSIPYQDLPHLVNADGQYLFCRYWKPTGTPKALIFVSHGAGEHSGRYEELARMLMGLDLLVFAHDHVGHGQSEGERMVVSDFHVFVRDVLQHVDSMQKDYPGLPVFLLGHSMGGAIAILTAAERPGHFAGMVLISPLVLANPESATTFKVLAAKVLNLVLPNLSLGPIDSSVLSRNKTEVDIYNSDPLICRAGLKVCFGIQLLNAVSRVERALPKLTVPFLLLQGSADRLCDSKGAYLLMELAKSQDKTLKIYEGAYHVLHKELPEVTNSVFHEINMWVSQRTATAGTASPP
# Assay: Measurement of MAGL inhibitory activity (RapidFire-mass spectrometry of arachidonic acid produced from 2-arachidonylglycerol)
# Assay type: biochemical
# Details: test compound 10 μM, His-hMAGL, substrate 2-arachidonylglycerol, 60 min preincubation; for inhibition at 10 µM: read-out: % inhibition (10 μM)
# Description: Furthermore, acetonitrile (50 μL) containing 3 μM arachidonic acid-d8 (Cayman Chemical Company) was added and the mixture was stirred.
# The amount of arachidonic acid in the obtained enzyme reaction mixture was calculated by measuring by RapidFire-mass spectrometry and correcting by the amount of arachidonic acid-d8. High Throughput online solid phase extraction was performed using RapidFire 300™ system (Agilent Technologies, Inc.). Samples were loaded on SPE C4 cartridge (Agilent Technologies, Inc.) and desalted with 0.2 (v/v) % acetic acid (Wako Pure Chemical Industries, Ltd.) in ultrapure water/acetonitrile (70/30, v/v) at a flow rate of 1.5 mL/min, eluted at a flow rate of 0.5 mL/min with 0.2(v/v) % acetic acid dissolved in acetonitrile/ultrapure water (90/10, v/v), and injected into the mass spectrometry part. The injection needle was washed with ultrapure water (500 millisecond) and acetonitrile (500 millisecond) to minimize carry-over. […] The RapidFire300 system was controlled by RapidFire UI software version 3.6 (Agilent Technologies, Inc.).
# The mass spectrometry of the resultant product was performed using API4000™ triple quadrupole mass spectrometer (AB SCIEX) equipped with an electrospray ion source (TurboIon Spray™) in a negative selected reaction monitoring (SRM) mode. The conditions of SRM are shown below. The parameters of the instrument were optimized as follows: capillary temperature 600° C., ion spray voltage −4.5 kV, collision gas 8, curtain gas 15 psi, ion source gas 1 60 psi, ion source gas 2 60 psi. The mass spectrometer was controlled by Analyst™ software version 1.5.1 (AB SCIEX). The peak area integration was analyzed using RapidFire integrator software version 3.6 (Agilent Technologies, Inc.).
# MAGL inhibitory rate (%) was calculated according to the following calculation formula. (1-(arachidonic acid production amount of test compound addition group−arachidonic acid production amount of enzyme-free group)÷(arachidonic acid production amount of test compound-free group−arachidonic acid production amount of enzyme-free group))×100
SMILES,inhibition at 10 µM [%],further results
"CC1(C2CCN(C(=O)[C@H]3C[C@]4(COC(=O)N4)C3)CC2)Cc2cc(F)ccc2O1 (some centres unmarked) [Example 4, (2s,4s)-2-((4-(5-fluoro-2-methyl-2,3-dihydro-1-benzofuran-2-yl)piperidin-1-yl)carbonyl)-7-oxa-5-azaspiro[3.4]octan-6-one]",100,–
"CC1(C2CCN(C(=O)[C@H]3C[C@]4(CCC(=O)N4)C3)CC2)Cc2cc(F)ccc2O1 (some centres unmarked) [Example 5, (2r,4s)-2-((4-(5-fluoro-2-methyl-2,3-dihydro-1-benzofuran-2-yl)piperidin-1-yl)carbonyl)-5-azaspiro[3.4]octan-6-one]",100,–
"O=C1N[C@]2(CO1)C[C@H](C(=O)N1CCC(C(F)(F)c3ccc(Cl)cc3Cl)CC1)C2 [Example 8, (2s,4s)-2-((4-((2,4-dichlorophenyl)(difluoro)methyl)piperidin-1-yl)carbonyl)-7-oxa-5-azaspiro[3.4]octan-6-one]",100,–
"O=C1N[C@]2(CO1)C[C@H](C(=O)N1CC(COc3ccc(C(F)(F)F)cc3F)C1)C2 [Example 9, (2s,4s)-2-((3-((2-fluoro-4-(trifluoromethyl)phenoxy)methyl)azetidin-1-yl)carbonyl)-7-oxa-5-azaspiro[3.4]octan-6-one]",100,–
"CC(Oc1ccc(C(F)(F)F)cc1F)C1CN(C(=O)[C@H]2C[C@]3(COC(=O)N3)C2)C1 (some centres unmarked) [Example 10, (2s,4s)-2-((3-(1-(2-fluoro-4-(trifluoromethyl)phenoxy)ethyl)azetidin-1-yl)carbonyl)-7-oxa-5-azaspiro[3.4]octan-6-one]",100,–
"CC(Oc1ccc(C(F)(F)F)cc1F)C1CN(C(=O)[C@H]2C[C@]3(COC(=O)N3)C2)C1 (some centres unmarked) [Example 13, (2s,4s)-2-((3-(1-(2-fluoro-4-(trifluoromethyl)phenoxy)ethyl)azetidin-1-yl)carbonyl)-7-oxa-5-azaspiro[3.4]octan-6-one]",–,% inhibition (10 μM): 100%
"CC(Oc1ccc(C(F)(F)F)cc1F)C1CN(C(=O)[C@H]2C[C@]3(COC(=O)N3)C2)C1 (some centres unmarked) [Example 14, (2s,4s)-2-((3-(1-(2-fluoro-4-(trifluoromethyl)phenoxy)ethyl)azetidin-1-yl)carbonyl)-7-oxa-5-azaspiro[3.4]octan-6-one]",–,% inhibition (10 μM): 100%
"CC1(C2CCN(C(=O)[C@H]3C[C@]4(COC(=O)N4)C3)CC2)Cc2cc(F)cc(F)c2O1 (some centres unmarked) [Example 16, (2s,4s)-2-((4-(5,7-difluoro-2-methyl-2,3-dihydro-1-benzofuran-2-yl)piperidin-1-yl)carbonyl)-7-oxa-5-azaspiro[3.4]octan-6-one]",100,–
"CC(Oc1ccc(Cl)cc1F)C1CCN(C(=O)[C@H]2C[C@]3(CCC(=O)N3)C2)CC1 (some centres unmarked) [Example 17, (2r,4s)-2-((4-(1-(4-chloro-2-fluorophenoxy)ethyl)piperidin-1-yl)carbonyl)-5-azaspiro[3.4]octan-6-one]",100,–
"CC(Oc1ccc(F)cc1F)C1CCN(C(=O)[C@H]2C[C@]3(COC(=O)N3)C2)CC1 (some centres unmarked) [Example 21, (2s,4s)-2-((4-(1-(2,4-difluorophenoxy)ethyl)piperidin-1-yl)carbonyl)-7-oxa-5-azaspiro[3.4]octan-6-one]",–,% inhibition (10 μM) (10 µM): 100%
"CC(Oc1ccc(F)cc1F)C1CCN(C(=O)[C@H]2C[C@]3(COC(=O)N3)C2)CC1 (some centres unmarked) [Example 22, (2s,4s)-2-((4-(1-(2,4-difluorophenoxy)ethyl)piperidin-1-yl)carbonyl)-7-oxa-5-azaspiro[3.4]octan-6-one]",–,% inhibition (10 μM) (10 µM): 101%
"O=C1N[C@]2(CO1)C[C@H](C(=O)N1CCC(OCc3ccc(Cl)cc3Cl)CC1)C2 [Example 24, (2s,4s)-2-((4-((2,4-dichlorobenzyl)oxy)piperidin-1-yl)carbonyl)-7-oxa-5-azaspiro[3.4]octan-6-one]",100,–
"CC1(C2CCN(C(=O)[C@H]3C[C@]4(COC(=O)N4)C3)CC2)Cc2cc(F)cc(Cl)c2O1 (some centres unmarked) [Example 27, (2s,4s)-2-((4-(7-chloro-5-fluoro-2-methyl-2,3-dihydro-1-benzofuran-2-yl)piperidin-1-yl)carbonyl)-7-oxa-5-azaspiro[3.4]octan-6-one]",101,–
"Cc1ccc(OC(C)C2CCN(C(=O)[C@H]3C[C@]4(COC(=O)N4)C3)CC2)c(F)c1 (some centres unmarked) [Example 28, (2s,4s)-2-((4-(1-(2-fluoro-4-methylphenoxy)ethyl)piperidin-1-yl)carbonyl)-7-oxa-5-azaspiro[3.4]octan-6-one]",100,–
"CC(Oc1ccc(Cl)cc1F)C1CCN(C(=O)[C@H]2C[C@]3(COC(=O)N3)C2)CC1 (some centres unmarked) [Example 31, (2s,4s)-2-((4-(1-(4-chloro-2-fluorophenoxy)ethyl)piperidin-1-yl)carbonyl)-7-oxa-5-azaspiro[3.4]octan-6-one]",–,% inhibition (10 μM) (10 µM): 101%
"CC(Oc1ccc(Cl)cc1F)C1CCN(C(=O)[C@H]2C[C@]3(COC(=O)N3)C2)CC1 (some centres unmarked) [Example 32, (2s,4s)-2-((4-(1-(4-chloro-2-fluorophenoxy)ethyl)piperidin-1-yl)carbonyl)-7-oxa-5-azaspiro[3.4]octan-6-one]",–,% inhibition (10 μM) (10 µM): 100%
"Cc1cc(F)ccc1OC(C)C1CCN(C(=O)[C@H]2C[C@]3(COC(=O)N3)C2)CC1 (some centres unmarked) [Example 33, (2s,4s)-2-((4-(1-(4-fluoro-2-methylphenoxy)ethyl)piperidin-1-yl)carbonyl)-7-oxa-5-azaspiro[3.4]octan-6-one]",–,% inhibition (10 μM) (10 µM): 101%
"Cc1cc(F)ccc1OC(C)C1CCN(C(=O)[C@H]2C[C@]3(COC(=O)N3)C2)CC1 (some centres unmarked) [Example 34, (2s,4s)-2-((4-(1-(4-fluoro-2-methylphenoxy)ethyl)piperidin-1-yl)carbonyl)-7-oxa-5-azaspiro[3.4]octan-6-one]",–,% inhibition (10 μM) (10 µM): 101%
"CC(Oc1ccc(C(F)(F)F)cc1F)C1CCN(C(=O)[C@H]2C[C@]3(COC(=O)N3)C2)CC1 (some centres unmarked) [Example 35, (2s,4s)-2-((4-(1-(2-fluoro-4-(trifluororoethyl)phenoxy)ethyl)piperidin-1-yl)carbonyl)-7-oxa-5-azaspiro[3.4]octan-6-one]",101,–

# The next lines start with results.
inhibition at 10 µM [%],SMILES,further results
100,"CC(Oc1ccc(F)cc1F)C1CCN(C(=O)[C@H]2C[C@]3(COC(=O)N3)C2)CC1 (some centres unmarked) [Example 15, (2s,4s)-2-((4-(1-(2,4-difluorophenoxy)ethyl)piperidin-1-yl)carbonyl)-7-oxa-5-azaspiro[3.4]octan-6-one]",–
101,"CC(Oc1ccc(Cl)cc1F)C1CCN(C(=O)[C@H]2C[C@]3(COC(=O)N3)C2)CC1 (some centres unmarked) [Example 18, (2s,4s)-2-((4-(1-(4-chloro-2-fluorophenoxy)ethyl)piperidin-1-yl)carbonyl)-7-oxa-5-azaspiro[3.4]octan-6-one]",–
101,"O=C1N[C@]2(CO1)C[C@H](C(=O)N1CCC(COc3ccc(C(F)(F)F)cc3Cl)CC1)C2 [Example 19, (2s,4s)-2-((4-((2-chloro-4-(trifluoromethyl)phenoxy)methyl)piperidin-1-yl)carbonyl)-7-oxa-5-azaspiro[3.4]octan-6-one]",–
100,"Cc1cc(F)ccc1OC(C)C1CCN(C(=O)[C@H]2C[C@]3(COC(=O)N3)C2)CC1 (some centres unmarked) [Example 20, (2s,4s)-2-((4-(1-(4-fluoro-2-methylphenoxy)ethyl)piperidin-1-yl)carbonyl)-7-oxa-5-azaspiro[3.4]octan-6-one]",–
100,"Cc1ccc(OCC2CCN(C(=O)[C@H]3C[C@]4(COC(=O)N4)C3)CC2)c(F)c1 [Example 23, (2s,4s)-2-((4-((2-fluoro-4-methylphenoxy)methyl)piperidin-1-yl)carbonyl)-7-oxa-5-azaspiro[3.4]octan-6-one]",–
100,"O=C1COC[C@]2(C[C@H](C(=O)N3CCC(COc4ccc(F)cc4Cl)CC3)C2)N1 [Example 25, (2s,4s)-2-((4-((2-chloro-4-fluorophenoxy)methyl)piperidin-1-yl)carbonyl)-8-oxa-5-azaspiro[3.5]nonan-6-one]",–
101,"O=C1N[C@]2(CO1)C[C@H](C(=O)N1CCC(COc3ccc(C(F)(F)F)cc3F)CC1)C2 [Example 26, (2s,4s)-2-((4-((2-fluoro-4-(trifluoromethyl)phenoxy)methyl)piperidin-1-yl)carbonyl)-7-oxa-5-azaspiro[3.4]octan-6-one]",–
